Test results from patent US20120065066A1, “NOVEL HERBICIDES” (SYNGENTA CROP PROTECTION LLC, priority 2009, published 2012).

What was measured:
Assay type in all cases: in vivo
[1] = system: Alopecurus myosuroides (ALOMY); test: Test Example 1, pre-emergence herbicidal test; conditions: 480 h, evaluated 20 days later, 100=total damage to plant, 0=no damage to plant
Method: (§1) Monocotyledonous and dicotyledonous test plants were sown in standard soil in pots. After cultivation for one day (pre-emergence) or after 10 days cultivation (post-emergence) under controlled conditions in a glasshouse, the plants were sprayed with an aqueous spray solution derived from the formulation of the technical active ingredient in 0.6 ml acetone and 45 ml formulation solution containing 10.6% Emulsogen EL (Registry number 61791-12-6), 42.2% N-methylpyrrolidone, 42.2% dipropylene glycol monomethyl ether (Registry number 34590-94-8) and 0.2% X-77 (Registry number 11097-66-8). The test plants were then grown in a greenhouse under optimum conditions until, 15 days later for post-emergence and 20 days for pre-emergence, the test was evaluated (100=total damage to plant; 0=no damage to plant). Test Plants: Lolium perenne (LOLPE), Setaria faberi (SETFA), Digitaria sanguinalis (DIGSA), Alopecurus myosuroides (ALOMY), Echinochloa crus-galli (ECHCG) and Avena fatua (AVEFA), Pre-Emergence Data: […]

Avena fatua (AVEFA) [2] = test: Test Example 1, pre-emergence herbicidal test; conditions: 480 h, evaluated 20 days later, 100=total damage to plant, 0=no damage to plant
Method: as §1

[3] = system: Digitaria sanguinalis (DIGSA); test: Test Example 1, pre-emergence herbicidal test; conditions: 480 h, evaluated 20 days later, 100=total damage to plant, 0=no damage to plant
Method: as §1

[4] = system: Echinochloa crus-galli (ECHCG); test: Test Example 1, pre-emergence herbicidal test; conditions: 480 h, evaluated 20 days later, 100=total damage to plant, 0=no damage to plant
Method: as §1

Lolium perenne (LOLPE) [5] = test: Test Example 1, pre-emergence herbicidal test; conditions: 480 h, evaluated 20 days later, 100=total damage to plant, 0=no damage to plant
Method: as §1

Setaria faberi (SETFA) [6] = test: Test Example 1, pre-emergence herbicidal test; conditions: 480 h, evaluated 20 days later, 100=total damage to plant, 0=no damage to plant, read-out: SEFTA damage to plant
Method: as §1

[7] = system: Alopecurus myosuroides (ALOMY); test: Test Example 1, post-emergence herbicidal test; conditions: 360 h, evaluated 15 days later, 100=total damage to plant, 0=no damage to plant
Method: as §1, with “Post-Emergence” for “Pre-Emergence”

Avena fatua (AVEFA) [8] = test: Test Example 1, post-emergence herbicidal test; conditions: 360 h, evaluated 15 days later, 100=total damage to plant, 0=no damage to plant
Method: as §1, with “Post-Emergence” for “Pre-Emergence”

[9] = system: Digitaria sanguinalis (DIGSA); test: Test Example 1, post-emergence herbicidal test; conditions: 360 h, evaluated 15 days later, 100=total damage to plant, 0=no damage to plant
Method: as §1, with “Post-Emergence” for “Pre-Emergence”

[10] = system: Echinochloa crus-galli (ECHCG); test: Test Example 1, post-emergence herbicidal test; conditions: 360 h, evaluated 15 days later, 100=total damage to plant, 0=no damage to plant
Method: as §1, with “Post-Emergence” for “Pre-Emergence”

Lolium perenne (LOLPE) [11] = test: Test Example 1, post-emergence herbicidal test; conditions: 360 h, evaluated 15 days later, 100=total damage to plant, 0=no damage to plant
Method: as §1, with “Post-Emergence” for “Pre-Emergence”

Setaria faberi (SETFA) [12] = test: Test Example 1, post-emergence herbicidal test; conditions: 360 h, evaluated 15 days later, 100=total damage to plant, 0=no damage to plant, read-out: SEFTA damage to plant
Method: as §1, with “Post-Emergence” for “Pre-Emergence”

SMILES	pest or weed control at 250 g/ha [1] [%]	pest or weed control at 250 g/ha (Avena fatua (AVEFA) [2]) [%]	pest or weed control at 250 g/ha [3] [%]	pest or weed control at 250 g/ha [4] [%]	pest or weed control at 250 g/ha (Lolium perenne (LOLPE) [5]) [%]	pest or weed control at 250 g/ha (Setaria faberi (SETFA) [6]) [%]	pest or weed control at 125 g/ha [7] [%]	pest or weed control at 125 g/ha (Avena fatua (AVEFA) [8]) [%]	pest or weed control at 125 g/ha [9] [%]	pest or weed control at 125 g/ha [10] [%]	pest or weed control at 125 g/ha (Lolium perenne (LOLPE) [11]) [%]	pest or weed control at 125 g/ha (Setaria faberi (SETFA) [12]) [%]
CCc1ccc(-c2ccc(Cl)cc2)cc1C1=C(O)[C@H]2[C@H]3C=C[C@](OC)(CC3)[C@H]2C1=O (racemic) [Compound T8, rac-(3aS,4R,7R,7aS)-2-(4′-chloro-4-ethylbiphenyl-3-yl)-4-methoxy-3a,4,7,7a-tetrahydro-4,7-ethanoindene-1,3-dione]	60	10	100	100	70	90	70	10	100	100	0	80
CCc1cc(C)cc(CC)c1C1=C(O)[C@H]2[C@H]3CC[C@H](CC3)[C@H]2C1=O (racemic) [Compound T48, rac-(7R,8S)-2-(2,6-diethyl-4-methylphenyl)hexahydro-4,7-ethanoindene-1,3-dione]	100	70	100	100	100	100	80	70	100	90	100	80
Cc1cc(C)c(C2=C(O)[C@H]3[C@H]4CC[C@H](C4)[C@H]3C2=O)c(C)c1 (racemic) [Compound T50, rac-(5S,6S,7R)-2-(2,4,6-trimethylphenyl)hexahydro-4,7-methanoindene-1,3-dione]	70	50	80	70	100	100	30	10	30	20	30	0
CCc1ccc(-c2ccc(Cl)cc2)cc1C1=C(O)[C@H]2C3CCC(C3=C(C)C)[C@H]2C1=O (stereo partly drawn) [Compound T21]	60	20	50	30	40	60	20	20	20	0	0	20
Cc1cc(C)c(C2=C(O)[C@H]3[C@H]4CC[C@H](CC4)[C@H]3C2=O)c(C)c1 [Compound T47]	90	50	100	70	80	100	0	40	80	60	40	60
CCc1cc(C)cc(CC)c1C1=C(O)[C@H]2[C@H]3CC[C@H](C3)[C@H]2C1=O [Compound T49]	100	70	100	100	100	100	100	80	100	100	100	100
CCc1cc(C)cc(CC)c1C1=C(O)[C@@H]2[C@H](C1=O)[C@@H]1CC[C@H]2C1=C(C)C [Compound T51]	60	60	80	90	100	80	30	0	30	10	50	0
CCc1cc(C)cc(CC)c1C1=C(O)[C@@H]2[C@H](C1=O)[C@H]1CC[C@@H]2C1=C(C)C [Compound T52]	50	60	80	90	70	100	90	20	70	80	50	80
Cc1cc(C)c(C2=C(O)[C@@H]3[C@H](C2=O)[C@@H]2C=C[C@H]3CC2)c(C)c1 [Compound T53]	70	40	80	70	100	100	20	0	50	60	30	20
CCc1cc(C)cc(CC)c1C1=C(O)[C@H]2[C@@H]3CC[C@@H](C(=O)C3)[C@H]2C1=O [Compound T54]	70	70	80	70	90	80	60	60	80	80	50	80
CCc1cc(C)cc(CC)c1C1=C(O)[C@H]2[C@H]3C=C[C@](OC)(CC3)[C@H]2C1=O [Compound T55]	100	70	100	100	100	100	80	80	80	100	70	90
